Results from publication PMC3105092 (PLoS ONE, 2011).
“And” between values parts separate entries of the source, which are not always exact repeats. Identical values can stand only once.

Tests used:
[1] = molecular target: T1, AgCPR (Anopheles gambiae, UniProt Q86QH5); test: Cytochrome c and NADPH steady-state kinetics, AgCPR; type: biochemical; conditions: phosphate buffer, 50 µM NADPH, 25°C; read-out: Km cytc
Procedure: (§3) The rate of change of absorbance of horse heart cytochrome c (Sigma-Aldrich, UK) at 550 nm was measured at 25°C using a Cary 4000 UV-Visible spectrophotometer essentially as described [17]. For cytochrome c kinetics, 0.75 pmol purified AgCPR or hCPR was pre-incubated with 0–110 µM cytochrome c (dissolved in 0.3 M potassium phosphate buffer; pH 7.7 or 0.1 M Tris-HCl, pH 7.7/0.1 M KCl) in a total volume of 500 µl for 2 min at 25°C.

[2] = molecular target: T2, hCPR (Homo sapiens, UniProt P16435); test: Cytochrome c and NADPH steady-state kinetics, hCPR; type: biochemical; conditions: phosphate buffer, 50 µM NADPH, 25°C; read-out: Km cytc
T2 sequence (P16435 43-677 limits assumed): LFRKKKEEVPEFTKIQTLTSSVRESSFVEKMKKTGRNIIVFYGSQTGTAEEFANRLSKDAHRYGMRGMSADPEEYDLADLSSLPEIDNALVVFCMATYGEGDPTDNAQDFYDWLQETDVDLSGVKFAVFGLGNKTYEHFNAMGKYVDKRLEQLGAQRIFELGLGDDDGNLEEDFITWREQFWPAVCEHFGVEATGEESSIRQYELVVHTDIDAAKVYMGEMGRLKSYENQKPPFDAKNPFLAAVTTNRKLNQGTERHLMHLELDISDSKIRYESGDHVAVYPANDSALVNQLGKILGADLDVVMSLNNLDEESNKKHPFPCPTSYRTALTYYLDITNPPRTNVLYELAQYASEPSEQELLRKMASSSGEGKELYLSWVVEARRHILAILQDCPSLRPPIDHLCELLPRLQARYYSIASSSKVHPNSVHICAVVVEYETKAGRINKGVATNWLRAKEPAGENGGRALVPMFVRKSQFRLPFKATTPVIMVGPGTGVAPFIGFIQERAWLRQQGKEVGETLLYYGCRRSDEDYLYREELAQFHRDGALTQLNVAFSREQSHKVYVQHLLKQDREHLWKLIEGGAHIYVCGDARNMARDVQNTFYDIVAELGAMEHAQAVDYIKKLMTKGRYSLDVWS
Procedure: as §3

[3] = molecular target: human anchorless NADPH-cytochrome P450 oxidoreductase (hCPR) (human) (UniProt P16435)
human anchorless NADPH-cytochrome P450 oxidoreductase (hCPR) (human), sequence (P16435 2-21): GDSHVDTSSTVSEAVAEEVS

[4] = molecular target: Δ63AgCPR (Anopheles gambiae NADPH-cytochrome P450 oxidoreductase lacking the N-terminal membrane anchor) (Anopheles gambiae)
[5] = molecular target: T3, AgCPR (Anopheles gambiae NADPH-cytochrome P450 oxidoreductase) (Anopheles gambiae, UniProt Q86QH5); test: Isothermal titration calorimetry of nucleotide ligands with AgCPR; type: binding; conditions: for Kobs / TΔS / n (binding stoichiometry) / ΔG / ΔH: 25°C, 100 mM BES pH 7.0
T3 sequence (Q86QH5 64-679): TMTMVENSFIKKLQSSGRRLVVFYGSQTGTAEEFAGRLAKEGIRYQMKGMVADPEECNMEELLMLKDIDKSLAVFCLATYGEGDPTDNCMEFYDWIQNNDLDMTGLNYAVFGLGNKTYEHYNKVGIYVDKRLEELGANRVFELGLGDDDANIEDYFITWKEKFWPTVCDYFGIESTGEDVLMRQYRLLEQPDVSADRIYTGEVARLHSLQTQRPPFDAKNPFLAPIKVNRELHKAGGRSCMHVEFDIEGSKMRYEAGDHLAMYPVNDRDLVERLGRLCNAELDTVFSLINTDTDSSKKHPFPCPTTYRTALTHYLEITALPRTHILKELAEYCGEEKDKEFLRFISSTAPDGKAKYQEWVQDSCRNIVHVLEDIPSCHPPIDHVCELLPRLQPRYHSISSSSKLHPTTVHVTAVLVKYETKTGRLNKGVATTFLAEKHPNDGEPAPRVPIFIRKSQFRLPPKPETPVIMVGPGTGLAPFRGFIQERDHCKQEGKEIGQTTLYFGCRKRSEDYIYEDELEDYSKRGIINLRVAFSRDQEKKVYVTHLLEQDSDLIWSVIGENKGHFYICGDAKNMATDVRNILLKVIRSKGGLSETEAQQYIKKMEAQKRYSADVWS
Procedure: (§1) ITC experiments were performed using a ITC200 microcalorimeter (Microcal Inc/GE Healthcare). Protein samples were dialysed into 100 mM BES; pH 7.0 from 50% glycerol stocks stored at −20°C. The concentrations of all the proteins were determined by using Bradford assay. Samples were centrifuged at 13,000×g for 10 min and degassed at 23°C (2°C below the temperature at which the experiments were performed). All experiments were performed at 25°C. Typically, the protein concentration in the cell was 10–20 µM whilst ligand concentrations were in the range of 100–1000 µM. The data analysed using Origin 7.0 (Microcal) after subtracting the heats of dilution obtained from parallel experiments performed by injecting the nucleotide into the buffer. Thermodynamic parameters n (stoichiometry), K d (1/K a, the association constant), and Δ°H (enthalpy change) were obtained by nonlinear least-squares fitting of experimental data using the single-site binding model. The free energy of binding (ΔG°) and entropy change (ΔS°) were obtained using eqs 1 and 2.

[6] = molecular target: T4, hCPR (human CPR) (Homo sapiens, UniProt P16435); test: Isothermal titration calorimetry of nucleotide ligands with hCPR; type: binding; conditions: ITC, 25°C, 100 mM BES pH 7.0
T4 sequence (P16435 43-677 limits assumed): T2 sequence (P16435 43-677 limits assumed)
Procedure: as §1

[7] = molecular target: T1, AgCPR; test: Inhibition of cytochrome c reduction by AgCPR; type: biochemical
Procedure: (§4) Measurement of cytochrome c reduction was carried out at 25°C with 50 µM cytochrome c and 0.75 pmol purified AgCPR or hCPR essentially as described [17] using 0.3 M potassium phosphate buffer, pH 7.7 or 0.1 M Tris-HCl, pH 7.7/0.1 M KCl, and different concentrations of 2′, 5′-ADP, 2′-AMP, NADP or diphenyliodonium chloride (all from Sigma-Aldrich, UK).

[8] = molecular target: T2, hCPR; test: Inhibition of cytochrome c reduction by hCPR; type: biochemical
Procedure: as §4

[9] = molecular target: methionine synthase reductase; conditions: read-out: low affinity binding mode (Kd); cited from earlier work
[10] = molecular target: T5, isolated apo-human FMN-binding domain of CPR (Homo sapiens, UniProt P16435); test: Isothermal titration calorimetry of FMN with apo-human FMN-binding domain; conditions: ITC, 25°C, 100 mM BES
T5 sequence (P16435 80-224 limits assumed): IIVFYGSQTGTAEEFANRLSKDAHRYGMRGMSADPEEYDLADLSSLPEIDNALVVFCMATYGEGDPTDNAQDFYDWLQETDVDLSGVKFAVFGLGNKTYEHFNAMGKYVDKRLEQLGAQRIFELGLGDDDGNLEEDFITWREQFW
Procedure: as §1
(§2) The binding affinity of FMN to the isolated FMN-binding domains of both A. gambiae and hCPR were also examined by titration of the apo-FMN binding domains (Figure 4). Both isotherms show reasonable binding and saturation of the apo-proteins is achieved with excess flavin.

[11] = molecular target: isolated apo-A. gambiae FMN-binding domain of CPR (Anopheles gambiae, UniProt Q86QH5); test: Isothermal titration calorimetry of FMN with apo-A. gambiae FMN-binding domain; conditions: ITC
Procedure: as §1, §2

[12] = molecular target: T6, hCPR (Homo sapiens, UniProt P16435); test: Isothermal titration calorimetry of oxidised CPR with nucleotides in phosphate-free 100 mM BES, pH 7.0, 25 °C, single-site model; Kd = 1/Kobs.; type: binding
T6 construct: gene POR
T6 sequence (P16435 64-677): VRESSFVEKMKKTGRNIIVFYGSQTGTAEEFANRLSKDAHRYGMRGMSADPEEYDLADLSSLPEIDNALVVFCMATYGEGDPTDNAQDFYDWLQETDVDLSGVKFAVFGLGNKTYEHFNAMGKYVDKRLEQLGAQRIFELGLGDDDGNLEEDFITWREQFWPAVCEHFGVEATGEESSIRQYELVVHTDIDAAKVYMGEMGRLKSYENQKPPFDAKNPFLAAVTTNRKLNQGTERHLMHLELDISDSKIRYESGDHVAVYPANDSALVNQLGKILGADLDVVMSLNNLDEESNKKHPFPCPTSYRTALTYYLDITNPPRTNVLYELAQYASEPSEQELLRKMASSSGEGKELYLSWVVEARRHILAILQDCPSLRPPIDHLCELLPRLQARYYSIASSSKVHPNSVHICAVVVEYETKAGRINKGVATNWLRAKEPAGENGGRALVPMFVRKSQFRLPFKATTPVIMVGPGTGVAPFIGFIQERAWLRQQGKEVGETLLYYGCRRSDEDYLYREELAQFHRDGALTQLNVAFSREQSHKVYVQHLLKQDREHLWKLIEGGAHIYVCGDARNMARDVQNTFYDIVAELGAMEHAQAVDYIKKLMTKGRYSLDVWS
Excerpt: Figure 3 represents the ITC binding isotherms resulting from the titration of AgCPR with 2′, 5′-ADP, NADP+ and 2′-AMP.

[13] = molecular target: T6, hCPR; test: Inhibition of cytochrome c (50 µM) reduction in phosphate-free 0.1 M Tris-HCl pH 7.7/0.1 M KCl, 25 °C, started with 12 µM (AgCPR) or 5 µM (hCPR) NADPH.; type: biochemical; conditions: SEM; read-out: IC50 µM (±S.E.), Tris Buffer
Procedure: as §4

[14] = molecular target: T1, AgCPR; test: Inhibition of cytochrome c (50 µM) reduction in 0.3 M potassium phosphate pH 7.7, 25 °C, started with 30 µM NADPH (AgCPR).; type: biochemical; design: Δ63AgCPR: soluble, membrane anchor (amino acids 2-63) deleted; His-tag removed by thrombin; expressed in E. coli; conditions: SEM; read-out: IC50 µM (±S.E.), Phosphate Buffer
Procedure: as §4

[15] = molecular target: T1, AgCPR; test: Inhibition of cytochrome c (50 µM) reduction in phosphate-free 0.1 M Tris-HCl pH 7.7/0.1 M KCl, 25 °C, started with 12 µM (AgCPR) or 5 µM (hCPR) NADPH.; type: biochemical; design: Δ63AgCPR: soluble, membrane anchor (amino acids 2-63) deleted; His-tag removed by thrombin; expressed in E. coli; conditions: SEM; read-out: IC50 µM (±S.E.), Tris Buffer
Procedure: as §4

[16] = IC50 (±S.E.), inhibition of cytochrome c reduction, Human CPR, Phosphate Buffer (0.3 M potassium phosphate pH 7.7), 15 µM NADPH, 50 µM cytochrome c, 25°C
[17] = 25°C, 100 mM BES, A. gambiae apo-FMN domain
[18] = read-out: IC50 (±S.E.), inhibition of cytochrome c reduction

horse heart cytochrome c, sequence (P00004 whole entry): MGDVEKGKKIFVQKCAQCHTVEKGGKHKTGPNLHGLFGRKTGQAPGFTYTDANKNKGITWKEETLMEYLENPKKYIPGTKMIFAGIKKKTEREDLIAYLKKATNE

Molecule: cytochrome c: horse heart cytochrome c, surrogate electron acceptor for measuring diflavin reductase activity
- Km [1]: 23 µM
- Km [2]: 19 µM

Molecule: horse heart cytochrome c (from UniProt P00004 1-105) (natural protein)
- Km^cytc of NADPH-dependent cytochrome c reduction (steady state, 0-110 µM cytochrome c, phosphate buffer, 25°C) [3]: 19 µM
- Km^cytc of NADPH-dependent cytochrome c reduction (steady state, 0-110 µM cytochrome c, phosphate buffer, 25°C) [4]: 23 µM

Molecule: Nc1ncnc2c1ncn2[C@@H]1O[C@H](COP(=O)(O)O)[C@@H](O)[C@H]1OP(=O)(O)O [2′,5′-ADP]
- Kd [5]: 0.41 ± 0.018 µM
- binding (Kd) to AgCPR weaker than hCPR (fold) ([5]; ITC): ~10 fold
- Kobs ([5]; ITC): 24.4±1.07 ×10^5 M^−1
- TΔS ([5]; ITC): -4.73 kcal/mol
- n (binding stoichiometry) ([5]; ITC): 1.01±0.03
- ΔG ([5]; ITC): -8.40 kcal/mol
- ΔH ([5]; ITC): -13.13 kcal/mol and -13.13 ± 0.35 kcal/mol
- Kobs [6]: 263±26.3 ×10^5 M^−1
- TΔS [6]: -9.97 kcal/mol
- n (binding stoichiometry) [6]: 1.00±0.02
- ΔG [6]: -10.39 kcal/mol
- ΔH [6]: -20.36 kcal/mol and -20.36 ± 0.53 kcal/mol
- IC50 of AgCPR relative to hCPR (fold higher) ([7]; both phosphate and phosphate-free buffer): 6–10 fold
- affinity for mosquito CPR lower than human (fold, from IC50) ([7]; phosphate-free Tris buffer): 6 fold
- IC50 [8, 16]: 28 ± 2 µM
- Kd [9]: ~0.5 µM

Molecule: Cc1cc2nc3c(=O)[nH]c(=O)nc-3n(C[C@H](O)[C@H](O)[C@H](O)COP(=O)(O)O)c2cc1C [FMN, flavin mononucleotide]
- Kd [10]: 0.023 ± 0.0009 µM
- Kobs [10]: 438±17.5 ×10^5 M^−1
- n (binding stoichiometry) [10]: 1.00±0.01
- ΔG [10]: -10.28 kcal/mol
- ΔH [10]: -19.46 ± 0.35 kcal/mol
- FMN binding to A. gambiae FMN domain weaker than human domain (fold) [11]: ~4 fold
- Kd [11, 17]: 0.083 ± 0.002 µM
- Kobs [11, 17]: 120±3.19 ×10^5 M^−1
- TΔS [11, 17]: -3.58 kcal/mol
- n (binding stoichiometry) [11, 17]: 0.98±0.01
- ΔG [11, 17]: -9.60 kcal/mol
- ΔH [11, 17]: -13.18 ± 0.19 kcal/mol

Molecule: NADP^+
- Kobs [6]: 145±24.5 ×10^5 M^−1
- TΔS [6]: -8.91 kcal/mol
- n (binding stoichiometry) [6]: 1.01±0.12
- ΔG [6]: -10.55 kcal/mol
- ΔH [6]: -19.46 kcal/mol and -19.46 ± 2.92 kcal/mol

Molecule: Nc1ncnc2c1ncn2[C@@H]1O[C@H](CO)[C@@H](O)[C@H]1OP(=O)(O)O [2′-AMP, adenosine 2′-monophosphate]
- Kd [12]: 1.6 ± 0.44 µM
- IC50 [13]: 280 ± 25 µM
- IC50 [14]: 1090 ± 202 µM
- IC50 [15]: 384 ± 27 µM

Molecule: Nc1ncnc2c1ncn2[C@@H]1O[C@H](COP(=O)(O)O)[C@@H](O)[C@H]1OP(=O)(O)O [2′,5′-ADP, adenosine 2′,5′-diphosphate]
- Kd [12]: 0.038 ± 0.0038 µM
- IC50 [13]: 10 ± 1 µM
- IC50 [14]: 262 ± 18 µM
- IC50 [15]: 62 ± 7 µM

Molecule: c1ccc([I+]c2ccccc2)cc1 [diphenyliodonium chloride]
- IC50 [7]: 28 ± 2 µM
- AgCPR more sensitive to inhibition than hCPR (fold) ([7]; cytochrome c reduction, phosphate buffer): ~10 fold

Molecule: Nc1ncnc2c1ncn2[C@@H]1O[C@H](CO)[C@@H](O)[C@H]1OP(=O)(O)O [2′-AMP]
- Kd [5]: 4 ± 0.18 µM
- Kobs ([5]; ITC): 2.51±0.11 ×10^5 M^−1
- TΔS ([5]; ITC): -2.19 kcal/mol
- n (binding stoichiometry) ([5]; ITC): 1.01±0.22
- ΔG ([5]; ITC): -5.47 kcal/mol
- ΔH ([5]; ITC): -7.66 ± 1.98 kcal/mol
- Kobs [6]: 6.15±1.69 ×10^5 M^−1
- TΔS [6]: -3.21 kcal/mol
- n (binding stoichiometry) [6]: 1.02±0.06
- ΔG [6]: -7.86 kcal/mol
- ΔH [6]: -11.07 ± 0.88 kcal/mol
- IC50 [7, 18]: 468 µM
- IC50 [8, 16]: 1090 µM
- IC50 [8, 18]: 468 ± 41 µM
